Laboratory results taken from patent US20170095440A1, “METHOD OF TREATING CANINE PANCREATITIS” (CK9, LLC, priority 2014, published 2017).
Entries after “also recorded” stand apart in the source; their conditions may differ.

Tests used:
[1] = tested on: dogs with suspected chronic pancreatitis; experiment: Serum canine pancreas-specific lipase (cPL/cPLI, Spec cPL) before and after treatment, clinical trial; format: in vivo, dog; details: for Change in serum cPL/cPLI, pre- vs post-treatment (Wilcoxon matched-pair): methanesulfonate
Method: Dogs were identified by screening current submissions to the Gastrointestinal Laboratory at Texas A&M indicative of pancreatitis (canine pancreas-specific lipase≧400 μg/L) using an immunoassay for measurement of canine pancreas-specific lipase in canine serum known as the spec CPL® Test (IDEXX, Laboratories). A number of potential study participants were directly referred to the investigator by veterinarians, based on positive pet-side SNAP cPL® Test (IDEXX Laboratories, Westbrook, Me., USA) results and concomitant clinical signs. After ascertaining individual suitability of a patient with the referring veterinarian, serum canine pancreas-specific lipase concentration, serum biochemistry profile, and complete blood count were evaluated or re-evaluated 12±4 days after collection of the initial sample submission to the Gastrointestinal Laboratory. Based on the assumption that consecutive canine pancreas-specific lipase elevations indicate chronic pancreatitis, enrollment was offered for patients with canine pancreas-specific lipase concentrations≧400 μg/L, serum triglyceride concentrations below 500 mg/dL, and no indication of hepatic, renal, or other organ disease. […] Owner consent was required prior to phlebotomy and for enrollment into the trial.
[…] […] Individual patients were medicated for between 21 to 31 days.
Blood samples were collected before beginning the treatment and after completion of the treatment period. Complete blood count (red blood cell count, hematocrit, mean corpuscular volume, mean corpuscular hemoglobin, mean corpuscular hemoglobin concentration, differential and absolute white blood cell count, red blood cell count, hemoglobin, platelet estimate, red blood cell morphology, white blood cell morphology, and hemoparasites) was evaluated at the Texas Veterinary Medical Diagnostic Laboratory (TVMDL). A serum chemistry profile with electrolytes (glucose, blood urea nitrogen, creatinine, calcium, phosphorus, albumin, total protein, total bilirubin, alkaline phosphatase, alanine amino transferase, aspartate amino transferase, γ-glutamyl transferase, cholesterol, triglycerides, globuline, sodium, potassium, and chloride) was performed on a SIRRUS analyzer (Stanbio, Boerne, Tex., USA). Serum concentrations of cPL (RI: 0-200 μg/L; Spec cPL® IDEXX Laboratories, Westbrook, Me., USA), cTLI (RI: 5.7-45.2 μg/L; Canine TLI DOUBLE ANTIBODY®, Siemens Healthcare Diagnostics, Los Angeles, Calif., USA), cobalamin (RI: 251-908 ng/L), and folate (RI: 7.7-24.4 μg/L; Immulite 2000®, Siemens Healthcare Diagnostics Inc., Deerfield, Ill., USA), canine specific C-reactive protein (RI: 0-7.6 mg/L, Tridelta Development Limited, Maynooth, CO. Kildare, Ireland), S100A12 (RI: 56-331 μg/L, Gastrointestinal Laboratory in-house radioimmunoassay), and TGF-β1 (RI: 38-72 ng/mL; Quantikine® ELISA, R&D Systems, Minneapolis, […]., USA) were performed at the Gastrointestinal Lab at Texas A&M University.
Additionally, samples that exceeded the working range of the Spec cPL assay were diluted and re-analyzed.
Pre-treatment and post-treatment results for all diagnostic tests were statistically analyzed using Prism 6 (GraphPad Software, La Jolla, Calif., USA). The D'Agostino-Pearson omnibus test was used to evaluate all datasets for Gaussian distribution. Groups were compared using a paired t-test for normally-distributed data sets and a Wilcoxon matched-pairs test when Gaussian distribution could not be assumed. Mean values and standard deviation are reported for data sets with Gaussian distribution. Median and minimum/maximum values are reported for data sets where Gaussian distribution could not be assumed. The significance threshold was set at p=0.05.

Beagle dogs = experiment: Rising-dose tolerance study, oral capsule; format: in vivo, dog
Method: The following parameters and end points were evaluated in the rising-dose phase of this study: clinical signs, body weights, body weight changes, food consumption, electrocardiography, clinical pathology parameters (hematology, clinical chemistry, and urinalysis), and gross necropsy findings.
3 male and 3 female Beagle dogs were received from Marshall BioResources, North Rose, N.Y. The animals were examined and weighed on the day following receipt. The rising-dose phase animals were 6 months old and weighed 7.5 kg and 8.3 kg at initiation of dosing. The multiple-dose phase animals were 7 months old and weighed 7.4 kg and 7.6 kg at initiation of dosing.
For the rising-dose phase, the test article was administered to the appropriate animals by oral capsule. At least a 3-day washout period was maintained before proceeding to the next dose level; therefore, dosing occurred on Days 1, 5, 9, 15, and 19. The dose amount for each animal was based on the most recent body weight measurement. The first day of dosing was designated as Study Day 1.
The animals were removed from the cage and a detailed clinical observation was performed daily, beginning during Week −1, 1 to 3 hours postdose on days of dosing. Each animal was weighed on the day of randomization and Days 1, 5, 9, 15, 19, and 22. Food consumption was quantitatively measured for each animal daily, starting Week −1, throughout the dosing period, except for on the day of scheduled euthanasia. Electrocardiogram (ECG) measurements were obtained from all animals using leads I, II, III, aVR, aVL, and aVF and a chart speed of 50 mm/second. The ECG measurements were obtained once pretreatment and at approximately 3 hours postdose on Days 1, 5, 9, 15, and 19. Only lead II was evaluated by a board-certified veterinary cardiologist.
Blood was collected by venipuncture of the jugular vein. Urine was collected overnight by cage pan drainage. After collection, samples were transferred to the clinical pathology laboratory for processing. The animals were fasted overnight prior to scheduled clinical pathology sample collections, but had access to water ad libitum. Samples were collected according to Table 5.
Rising-dose phase animals surviving until scheduled euthanasia were weighed, samples for evaluation of clinical pathology parameters were collected as specified above, and the animals were euthanized by sodium pentobarbital injection, followed by exsanguination. Animals were fasted overnight before their scheduled necropsy.
Rising-dose phase animals were subjected to a complete necropsy examination, which included evaluation of the carcass and musculoskeletal system; all external surfaces and orifices; cranial cavity and external surfaces of the brain; and thoracic, abdominal, and pelvic cavities with their associated organs and tissues. Necropsy examinations were conducted under the supervision of a board-certified veterinary pathologist.

rats = details: cited from earlier work
[2] = following each dose, 10-250 mg/kg, methanesulfonate

Structure (SMILES): CN(C)C(=O)COC(=O)Cc1ccc(OC(=O)c2ccc(NC(=N)N)cc2)cc1 [Camostat Mesilate, N,N-dimethylcarbamoylmethyl-4-(4-guanidinobenzoyloxy)phenylacetate methanesulfonate]
- Serum cPL/cPLI concentration post-treatment (median) ([1]; 4 mg/kg q 8 hrs oral capsules, 21-31 days, n=12, pre-treatment median 501, post range 125-2,836, p=0.9697): 453 µg/L
- Change in serum cPL/cPLI, pre- vs post-treatment (Wilcoxon matched-pair) ([1]; 4 mg/kg q 8 hrs, n=12): no significant difference; also recorded: did not change significantly
- Change in serum cPL/cPLI, pre- vs post-treatment (Wilcoxon matched-pair) ([1]; 8 mg/kg q 8 hrs (24 mg/kg q d), n=17): significant difference; also recorded: statistically significant change; also recorded: statistically significant decrease
- Serum cPL/cPLI concentration post-treatment (median) ([1]; 8 mg/kg q 8 hrs oral capsules, 21-31 days, n=17, pre-treatment median 882, post range 193-2,580, p=0.0232): 633 µg/L
- Serum cPL/cPLI concentration post-treatment (median) ([1]; all treated dogs combined, n=29, pre-treatment median 690, post range 125-2,836, p=0.0903 or 0.0562): 514 µg/L
- Change in serum cPL/cPLI, pre- vs post-treatment (Wilcoxon matched-pair) ([1]; all treated dogs combined, n=29, trend towards a decrease): no statistically significant difference
- Clinical observations (Beagle dogs; 10 mg/kg single oral dose): soft feces were noted in the female the day after dosing
- Clinical observations (Beagle dogs; 30 mg/kg single oral dose): no clinical observations noted
- Clinical observations (Beagle dogs; 100 mg/kg single oral dose): clear ocular discharge was observed in the female
- Clinical observations (Beagle dogs; 200 mg/kg single oral dose, methanesulfonate): slight salivation and soft feces/feces with mucoid material were observed in the male and female
- Clinical observations (Beagle dogs; 250 mg/kg single oral dose, methanesulfonate): severe salivation was observed following dosing in the male and female; also recorded: salivation and soft feces/feces with mucoid material
- Gross necropsy findings (Beagle dogs; Day 22): no gross necropsy findings
- Body weight (Beagle dogs; between doses, 10-250 mg/kg): no notable changes
- Food consumption (Beagle dogs; between doses, 10-250 mg/kg): no notable changes
- Clinical chemistry, potential test article-related changes (Beagle dogs; female, following the 200 and 250 mg/kg doses): increased creatine kinase
- Hematology parameters (Beagle dogs; [2]): no toxicologically meaningful changes; also recorded: no notable changes
- Urinalysis parameters (Beagle dogs; [2]): no toxicologically meaningful changes; also recorded: no notable changes
- Clinical chemistry, potential test article-related changes (Beagle dogs; male, following the 250 mg/kg dose): increased creatinine, total bilirubin, and urea nitrogen
- Survival (Beagle dogs; single oral doses 10, 30, 100, 200, 250 mg/kg, 1 male and 1 female, methanesulfonate): No rising-dose phase animals died; also recorded: All animals survived to scheduled euthanasia
- Clinical signs up to 30 minutes postdose (rats; 1300 mg/kg/day): preening and a slight decrease in locomotor activity
- Body weight gain (rats; 550 and 1300 mg/kg/day): suppressed
- Clinical signs immediately after dosing (rats; all treated groups: 100, 235, 550, 1300 mg/kg/day, 90 and 180 days): hypersalivation
